Reference: PubChem BioAssay (NCI)
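Method: 48-hour compound exposure of cells in 96-well plates, five concentrations, linear interpolation of endpoints. GI50 = concentration required for 50% inhibition of growth. TGI: total growth inhibition.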

What was measured:
Test in all cases: NCI anticancer screen, dose series, 48 h
DU-145 prostate = tested on: DU-145 prostate
MDA-MB-435 = tested on: MDA-MB-435
SK-MEL-2 melanoma = tested on: SK-MEL-2 melanoma
NCI-H460 lung = tested on: NCI-H460 lung
BT-549 breast = tested on: BT-549 breast
PC-3 prostate = tested on: PC-3 prostate
HOP-62 NSCLC = tested on: HOP-62 NSCLC
NCI-H522 lung = tested on: NCI-H522 lung
NCI-H23 lung = tested on: NCI-H23 lung
UACC-257 melanoma = tested on: UACC-257 melanoma
CCRF-CEM leukemia = tested on: CCRF-CEM leukemia
NCI/ADR-RES ovarian = tested on: NCI/ADR-RES ovarian
TK-10 renal = tested on: TK-10 renal
ACHN renal = tested on: ACHN renal
RXF 393 renal = tested on: RXF 393 renal
SR leukemia = tested on: SR leukemia
CAKI-1 renal = tested on: CAKI-1 renal
RPMI-8226 leukemia = tested on: RPMI-8226 leukemia
OVCAR-8 ovarian = tested on: OVCAR-8 ovarian
SK-MEL-5 melanoma = tested on: SK-MEL-5 melanoma
SF-295 CNS = tested on: SF-295 CNS
HCT-15 colon = tested on: HCT-15 colon
OVCAR-5 ovarian = tested on: OVCAR-5 ovarian
HT29 colon = tested on: HT29 colon
SK-MEL-28 melanoma = tested on: SK-MEL-28 melanoma
SNB-19 CNS = tested on: SNB-19 CNS
COLO 205 colon = tested on: COLO 205 colon
HCT-116 colon = tested on: HCT-116 colon
MCF7 breast = tested on: MCF7 breast
MALME-3M melanoma = tested on: MALME-3M melanoma
A549 NSCLC = tested on: A549 NSCLC
HCC-2998 colon = tested on: HCC-2998 colon
OVCAR-3 ovarian = tested on: OVCAR-3 ovarian
M14 melanoma = tested on: M14 melanoma
SF-539 CNS = tested on: SF-539 CNS
U251 CNS = tested on: U251 CNS
SW-620 colon = tested on: SW-620 colon
HL-60(TB) leukemia = tested on: HL-60(TB) leukemia
SK-OV-3 ovarian = tested on: SK-OV-3 ovarian
UACC-62 melanoma = tested on: UACC-62 melanoma
SN12C renal = tested on: SN12C renal
HOP-92 NSCLC = tested on: HOP-92 NSCLC
NCI-H226 lung = tested on: NCI-H226 lung
IGROV1 ovarian = tested on: IGROV1 ovarian
UO-31 renal = tested on: UO-31 renal
MDA-MB-231 breast = tested on: MDA-MB-231 breast
MOLT-4 leukemia = tested on: MOLT-4 leukemia
786-0 renal = tested on: 786-0 renal
LOX IMVI melanoma = tested on: LOX IMVI melanoma
SNB-75 CNS = tested on: SNB-75 CNS
EKVX NSCLC = tested on: EKVX NSCLC
SF-268 CNS = tested on: SF-268 CNS
KM12 colon = tested on: KM12 colon
T-47D breast = tested on: T-47D breast
OVCAR-4 ovarian = tested on: OVCAR-4 ovarian
A498 renal = tested on: A498 renal
K-562 leukemia = tested on: K-562 leukemia

Compound: CCC(C)CC(CC)NCCN1CCN(C(CC)CC(C)CC)C1=S (stereo not given)
- GI50 (DU-145 prostate): 2.17 µM
- TGI (DU-145 prostate): 4.71 µM
- GI50 (MDA-MB-435): 1.77 µM
- TGI (MDA-MB-435): 3.39 µM
- GI50 (SK-MEL-2 melanoma): 1.89 µM
- TGI (SK-MEL-2 melanoma): 3.41 µM
- GI50 (NCI-H460 lung): 2.5 µM
- TGI (NCI-H460 lung): 4.1 µM
- GI50 (BT-549 breast): 2.39 µM
- TGI (BT-549 breast): 4.52 µM
- GI50 (PC-3 prostate): 2.05 µM
- TGI (PC-3 prostate): 6.87 µM
- GI50 (HOP-62 NSCLC): 1.82 µM
- TGI (HOP-62 NSCLC): 3.21 µM
- GI50 (NCI-H522 lung): 1.74 µM
- TGI (NCI-H522 lung): 3.24 µM
- GI50 (NCI-H23 lung): 1.74 µM
- TGI (NCI-H23 lung): 3.5 µM
- GI50 (UACC-257 melanoma): 1.65 µM
- TGI (UACC-257 melanoma): 3.1 µM
- GI50 (CCRF-CEM leukemia): 1.86 µM
- TGI (CCRF-CEM leukemia): 4.98 µM
- GI50 (NCI/ADR-RES ovarian): 1.66 µM
- TGI (NCI/ADR-RES ovarian): 3.39 µM
- GI50 (TK-10 renal): 3.16 µM
- TGI (TK-10 renal): 11 µM
- GI50 (ACHN renal): 1.76 µM
- TGI (ACHN renal): 3.14 µM
- GI50 (RXF 393 renal): 1.5 µM
- TGI (RXF 393 renal): 2.82 µM
- GI50 (SR leukemia): 1.87 µM
- TGI (SR leukemia): 4.12 µM
- GI50 (CAKI-1 renal): 1.8 µM
- TGI (CAKI-1 renal): 3.66 µM
- GI50 (RPMI-8226 leukemia): 1.85 µM
- TGI (RPMI-8226 leukemia): 4.25 µM
- GI50 (OVCAR-8 ovarian): 1.66 µM
- TGI (OVCAR-8 ovarian): 3.05 µM
- GI50 (SK-MEL-5 melanoma): 1.61 µM
- TGI (SK-MEL-5 melanoma): 2.95 µM
- GI50 (SF-295 CNS): 1.86 µM
- TGI (SF-295 CNS): 3.68 µM
- GI50 (HCT-15 colon): 1.79 µM
- TGI (HCT-15 colon): 3.4 µM
- GI50 (OVCAR-5 ovarian): 1.72 µM
- TGI (OVCAR-5 ovarian): 3.32 µM
- GI50 (HT29 colon): 1.67 µM
- TGI (HT29 colon): 3.1 µM
- GI50 (SK-MEL-28 melanoma): 1.69 µM
- TGI (SK-MEL-28 melanoma): 3.06 µM
- GI50 (SNB-19 CNS): 1.73 µM
- TGI (SNB-19 CNS): 3.87 µM
- GI50 (COLO 205 colon): 1.6 µM
- TGI (COLO 205 colon): 2.95 µM
- GI50 (HCT-116 colon): 1.79 µM
- TGI (HCT-116 colon): 3.27 µM
- GI50 (MCF7 breast): 1.63 µM
- TGI (MCF7 breast): 2.98 µM
- GI50 (MALME-3M melanoma): 1.74 µM
- TGI (MALME-3M melanoma): 3.19 µM
- GI50 (A549 NSCLC): 1.76 µM
- TGI (A549 NSCLC): 3.37 µM
- GI50 (HCC-2998 colon): 1.57 µM
- TGI (HCC-2998 colon): 2.9 µM
- GI50 (OVCAR-3 ovarian): 1.97 µM
- TGI (OVCAR-3 ovarian): 4.08 µM
- GI50 (M14 melanoma): 1.79 µM
- TGI (M14 melanoma): 3.25 µM
- GI50 (SF-539 CNS): 1.97 µM
- TGI (SF-539 CNS): 3.43 µM
- GI50 (U251 CNS): 1.55 µM
- TGI (U251 CNS): 2.88 µM
- GI50 (SW-620 colon): 1.89 µM
- TGI (SW-620 colon): 3.55 µM
- GI50 (HL-60(TB) leukemia): 1.93 µM
- TGI (HL-60(TB) leukemia): 3.77 µM
- GI50 (SK-OV-3 ovarian): 1.86 µM
- TGI (SK-OV-3 ovarian): 3.36 µM
- GI50 (UACC-62 melanoma): 1.65 µM
- TGI (UACC-62 melanoma): 3.05 µM
- GI50 (SN12C renal): 2.55 µM
- TGI (SN12C renal): 7.83 µM
- GI50 (HOP-92 NSCLC): 1.05 µM
- TGI (HOP-92 NSCLC): 2.96 µM
- GI50 (NCI-H226 lung): 1.85 µM
- TGI (NCI-H226 lung): 4.02 µM
- GI50 (IGROV1 ovarian): 2.23 µM
- TGI (IGROV1 ovarian): 4.53 µM
- GI50 (UO-31 renal): 2.39 µM
- TGI (UO-31 renal): 8.68 µM
- GI50 (MDA-MB-231 breast): 1.84 µM
- TGI (MDA-MB-231 breast): 3.55 µM
- GI50 (MOLT-4 leukemia): 2.22 µM
- TGI (MOLT-4 leukemia): 5.19 µM
- GI50 (786-0 renal): 1.83 µM
- TGI (786-0 renal): 3.3 µM
- GI50 (LOX IMVI melanoma): 1.57 µM
- TGI (LOX IMVI melanoma): 2.91 µM
- GI50 (SNB-75 CNS): 1.49 µM
- TGI (SNB-75 CNS): 2.82 µM
- GI50 (EKVX NSCLC): 1.93 µM
- TGI (EKVX NSCLC): 5.13 µM
- GI50 (SF-268 CNS): 1.92 µM
- TGI (SF-268 CNS): 4.11 µM
- GI50 (KM12 colon): 1.71 µM
- TGI (KM12 colon): 3.22 µM
- GI50 (T-47D breast): 1.72 µM
- TGI (T-47D breast): 3.57 µM
- GI50 (OVCAR-4 ovarian): 1.59 µM
- TGI (OVCAR-4 ovarian): 3.91 µM

Compound: COc1ccc(/C=C/C(c2cc(OC)c(OC)c(OC)c2)n2cncn2)cc1O (stereo not given)
- GI50 (SK-MEL-2 melanoma): 0.0438 µM
- TGI (SK-MEL-2 melanoma): > 100 µM
- GI50 (NCI-H460 lung): 0.0423 µM
- TGI (NCI-H460 lung): 51.9 µM
- GI50 (BT-549 breast): 0.0712 µM
- TGI (BT-549 breast): 37.1 µM
- GI50 (PC-3 prostate): 0.036 µM
- TGI (PC-3 prostate): > 100 µM
- GI50 (NCI-H23 lung): 3.47 µM
- TGI (NCI-H23 lung): > 100 µM
- GI50 (UACC-257 melanoma): > 100 µM
- TGI (UACC-257 melanoma): > 100 µM
- GI50 (CCRF-CEM leukemia): 0.032 µM
- TGI (CCRF-CEM leukemia): > 100 µM
- GI50 (A498 renal): 3.13 µM
- TGI (A498 renal): 9.09 µM
- GI50 (TK-10 renal): 21.2 µM
- TGI (TK-10 renal): > 100 µM
- GI50 (ACHN renal): 0.0578 µM
- TGI (ACHN renal): > 100 µM
- GI50 (SR leukemia): 0.0248 µM
- TGI (SR leukemia): > 100 µM
- GI50 (CAKI-1 renal): 2.83 µM
- TGI (CAKI-1 renal): > 100 µM
- GI50 (RPMI-8226 leukemia): 0.037 µM
- TGI (RPMI-8226 leukemia): 42.2 µM
- GI50 (SK-MEL-5 melanoma): 0.0458 µM
- TGI (SK-MEL-5 melanoma): 35.4 µM
- GI50 (HCT-15 colon): 0.0508 µM
- TGI (HCT-15 colon): > 100 µM
- GI50 (OVCAR-5 ovarian): 4.48 µM
- TGI (OVCAR-5 ovarian): 72.6 µM
- GI50 (HT29 colon): 3.68 µM
- TGI (HT29 colon): 17.2 µM
- GI50 (SK-MEL-28 melanoma): 3.62 µM
- TGI (SK-MEL-28 melanoma): > 100 µM
- GI50 (COLO 205 colon): 3.66 µM
- TGI (COLO 205 colon): 16.8 µM
- GI50 (HCT-116 colon): 0.041 µM
- TGI (HCT-116 colon): > 100 µM
- GI50 (MCF7 breast): 0.033 µM
- TGI (MCF7 breast): > 100 µM
- GI50 (A549 NSCLC): 4.56 µM
- TGI (A549 NSCLC): > 100 µM
- GI50 (HCC-2998 colon): 3 µM
- TGI (HCC-2998 colon): > 100 µM
- GI50 (M14 melanoma): 0.0287 µM
- TGI (M14 melanoma): 5.12 µM
- GI50 (K-562 leukemia): 0.032 µM
- TGI (K-562 leukemia): > 100 µM
- GI50 (U251 CNS): 0.0506 µM
- TGI (U251 CNS): 56.4 µM
- GI50 (SW-620 colon): 0.0394 µM
- TGI (SW-620 colon): > 100 µM
- GI50 (HL-60(TB) leukemia): 0.0245 µM
- TGI (HL-60(TB) leukemia): 0.0627 µM
- GI50 (UACC-62 melanoma): 0.0476 µM
- TGI (UACC-62 melanoma): > 100 µM
- GI50 (SN12C renal): 7.19 µM
- TGI (SN12C renal): > 100 µM
- GI50 (HOP-92 NSCLC): 67 µM
- TGI (HOP-92 NSCLC): > 100 µM
- GI50 (NCI-H226 lung): 5.93 µM
- TGI (NCI-H226 lung): > 100 µM
- GI50 (IGROV1 ovarian): 5.83 µM
- TGI (IGROV1 ovarian): > 100 µM
- GI50 (MDA-MB-231 breast): 3.02 µM
- TGI (MDA-MB-231 breast): > 100 µM
- GI50 (LOX IMVI melanoma): 0.0511 µM
- TGI (LOX IMVI melanoma): > 100 µM
- GI50 (EKVX NSCLC): 6.07 µM
- TGI (EKVX NSCLC): > 100 µM
- GI50 (SF-268 CNS): 0.059 µM
- TGI (SF-268 CNS): > 100 µM
- GI50 (KM12 colon): 0.0405 µM
- TGI (KM12 colon): > 100 µM
- GI50 (T-47D breast): > 100 µM
- TGI (T-47D breast): > 100 µM
- GI50 (OVCAR-4 ovarian): 7.05 µM
- TGI (OVCAR-4 ovarian): > 100 µM
